Results on seven compounds are retold here after patent US8637683B2, “Macrocyclic lactone derivatives for the treatment of cancer” (Piramal Enterprises Limited, priority 2009, dated 2014).

Experiment [1] relates to panel of 12 human tumor cell lines. Briefly: Monolayer assay, panel of 12 human tumor cell lines. Format: cell-based. Conditions: for IC50 / Mean IC70: mean over panel of 12 human tumor cell lines, test range 0.0001 μM-10 μM; for % Selectivity / Rating (selectivity) / Selectivity Total (cell lines with individual IC70 < 1/3 mean IC70) / in vitro antitumor activity: panel of 12 human tumor cell lines. As for the experimental part:
Cell lines were routinely passaged once or twice weekly and maintained in culture for upto 20 passages. All cells were grown at 37° C. in a humidified atmosphere with 5% CO2 in RPMI 1640 medium supplemented with 10% (v/v) fetal calf serum (FCS) and 0.1 mg/mL gentamicin (medium and all other components from PAA, Cölbe, Germany). Authenticity of all cell lines was proven at the DSMZ by STR (short tandem repeat) analysis, a PCR based DNA-fingerprinting methodology.
Stock solutions of the test compounds (330 μg/mL in DMSO) were prepared and stored in small aliquots (200 μL) at −20° C. An aliquot of the stock solution was thawed on the day of use and stored at room temperature prior to and during dosing. The subsequent dilutions were done with complete RPMI 1640 cell culture medium as follows: the stock solution was diluted 1:22 followed by serial dilutions finally resulting in a (compared to the test concentration) 15-fold higher concentration. For the final dilution step (1:15), 10 μL/well of the respective compound solution was directly added to 140 μL/well culture medium. Test compounds were tested at […]. Each concentration was evaluated in triplicate.
A modified propidium iodide assay was used to assess the effect of the test compounds on the growth of the human tumor cell lines and was designed as in reference, Anti-cancer Drugs, 6, 522-532, (1995), the disclosure of which is incorporated by reference for the teaching of the assay.
Cells were plated in 96-well flat-bottom microtiter plates at a cell density of 4,000 to 10,000 cells/well. After a 24 h recovery period to allow the cells to resume exponential growth, the test compounds were applied at five concentrations in log increments in triplicates in two independent runs. After 4 days of treatment, the medium with/without test compounds including all floating (i.e., dead) cells was aspirated and replaced by 200 μL of an aqueous propidium iodide (PI) solution (7 μg/mL). To measure the viable cell number, the remaining adherent cells were killed and permeabilized by repeated freezing and thawing and PI fluorescence was measured using the Cytofluor 4000 microplate reader (excitation λ=530 nm, emission λ=620 nm), which was a measure for the number of cells which survived treatment. Pharmacological effects on cell proliferation and survival were expressed as Test/Control×100 (% T/C) values, with T and C representing the fluorescence read-outs for wells with and without test compound, respectively, i.e. T/C represents the ratio of viable cell numbers following incubation of cell line with/without test compound. Based on the T/C values IC50 and IC70 values, being the drug concentration necessary to inhibit cell growth by 50% (T/C=50%) and 70% (T/C=30%), respectively, were determined by plotting compound concentration versus cell viability (T/C). IC-values were calculated based on the principle of linear two-point curve fit.

In the next experiment the test system is T 24. The experiment in a line: Monolayer assay (modified propidium iodide), T 24. Format: cell-based, human. To be noted: T 24, Bladder; 4 days of treatment. From the text: (§1) Oncotest GmbH, Germany's proprietary tumor cell line panel comprises 40 cell lines. These cell lines were derived from 15 different tumor histotypes, each represented by 1 to 6 different cell lines. Cell lines were established from cancer of the bladder (3), colon (4), head and neck (1), lung (6), breast (3), pancreas (3), prostate (4), ovary (2), kidney (3), liver (1), stomach (1) and the uteri body (1), as well as from melanoma (3), sarcoma (2) and pleuramesothelioma (3). Out of these 40 cell lines, 24 cell lines were established at Oncotest, from patient-derived tumor xenografts. The other 16 cell lines were either provided by the NCI (Bethesda; MD, USA) or were purchased from ATCC (Rockville, Md., USA) or DSMZ (Braunschweig, Germany).
(§2) Cell lines were routinely passaged once or twice weekly and maintained in culture for upto 20 passages. All cells were grown at 37° C. in a humidified atmosphere with 5% CO2 in RPMI 1640 medium supplemented with 10% (v/v) fetal calf serum (FCS) and 0.1 mg/mL gentamicin (medium and all other components from PAA, Cölbe, Germany). […]
(§3) Stock solutions of the test compounds (330 μg/mL in DMSO) were prepared and stored in small aliquots (200 μL) at −20° C. […] Each concentration was evaluated in triplicate. […]
(§4) Cells were plated in 96-well flat-bottom microtiter plates at a cell density of 4,000 to 10,000 cells/well. […] To measure the viable cell number, the remaining adherent cells were killed and permeabilized by repeated freezing and thawing and PI fluorescence was measured using the Cytofluor 4000 microplate reader (excitation λ=530 nm, emission λ=620 nm), which was a measure for the number of cells which survived treatment. Pharmacological effects on cell proliferation and survival were expressed as Test/Control×100 (% T/C) values, with T and C representing the fluorescence read-outs for wells with and without test compound, respectively, i.e. T/C represents the ratio of viable cell numbers following incubation of cell line with/without test compound. […] IC-values were calculated based on the principle of linear two-point curve fit. […]

The test system of a further experiment is CXF 269L. The experiment in a line: Monolayer assay (modified propidium iodide), CXF 269L. To be noted: Colon, 4 days of treatment. Format: cell-based, human.
Source text: as §1, §2, §3, §4

The test system of a further experiment is LXF 526L. Briefly: Monolayer assay (modified propidium iodide), LXF 526L. Format: cell-based, human. To be noted: Lung, 4 days of treatment.
Source text: as §1, §2, §3, §4

The test system of a further experiment is MDA 231. The experiment in a line: Monolayer assay (modified propidium iodide), MDA 231. Format: cell-based, human. Conditions: MDA 231, Mammary; 4 days of treatment.
Source text: as §1, §2, §3, §4

The structures appear in SMILES notation.

In general, IC50 refers to the concentration needed to halve the response being measured. Lower therefore signals greater potency. In general, IC70 refers to the concentration needed for an effect of 70%. Low values mean greater potency, high ones weaker potency.

As for `C/C=C/C(O)C(C)/C=C/C(=NOCC(=O)O)C(C)C(O)C(C)C1OC(=O)/C(OC)=C/C(C)=C/C(C)C(O)C(CC)C(O)C(C)C/C(C)=C/C=C/C1OC` (stereo in doubt) [Example 10, ((Z)-((6E,10E)-2-((4E,6E,14E,16Z)-11-Ethyl-10,12-dihydroxy-3,17-dimethoxy-7,9,13,15-tetramethyl-18-oxooxacyclooctadeca-4,6,14,16-tetraen-2-yl)-3,9-dihydroxy-4,8-dimethyldodeca-6,10-dien-5-ylidene)aminooxy)acetic acid], in experiment [1], the IC50 was determined as 0.514 µM, the “Mean IC70” value is 1.258 µM, the “% Selectivity” value is on record as 8% and the “Rating (selectivity)” value was “(+) (+ (4% > selective >= 12%))”. Also, in experiment [1], the “Selectivity Total (cell lines with individual IC70 < 1/3 mean IC70)” value (from here on “Selectivity Total”) is recorded as 1/12 and the “in vitro antitumor activity” value is “showed in vitro antitumor activity”.

Take `C/C=C/C(O)C(C)/C=C/C(=NOCC(=O)N1CCN(C)CC1)C(C)C(O)C(C)C1OC(=O)/C(OC)=C/C(C)=C/C(C)C(O)C(CC)C(O)C(C)C/C(C)=C/C=C/C1OC` (stereo in doubt) [Example 11, (3Z,5E,13E,15E)-18-((5Z,6E,10E)-3,9-Dihydroxy-4,8-dimethyl-5-(2-(4-methylpiperazin-1-yl)-2-oxoethoxyimino)dodeca-6,10-dien-2-yl)-9-ethyl-8,10-dihydroxy-3,17-dimethoxy-5,7,11,13-tetramethyloxacyclooctadeca-3,5,13,15-tetraen-2-one]: in experiment [1], the IC50 amounted to 0.006 µM, the “Mean IC70” value stood at 0.020 µM, the “% Selectivity” value is recorded as 25% and the “Rating (selectivity)” value is “(+ + +)”. Moreover, in experiment [1], the “Selectivity Total” value is given as 3/12 and the “in vitro antitumor activity” value is reported as “showed in vitro antitumor activity”.

As for `C/C=C/C(O)C(C)/C=C/C(=NOCC(=O)NCCO)C(C)C(O)C(C)C1OC(=O)/C(OC)=C/C(C)=C/C(C)C(O)C(CC)C(O)C(C)C/C(C)=C/C=C/C1OC` (stereo in doubt) [Example 12, 2-((Z)-((6E,10E)-2-((4E,6E,14E,16Z)-11-Ethyl-10,12-dihydroxy-3,17-dimethoxy-7,9,13,15-tetramethyl-18-oxooxacyclooctadeca-4,6,14,16-tetraen-2-yl)-3,9-dihydroxy-4,8-dimethyldodeca-6,10-dien-5-ylidene)aminooxy)-N-(2-hydroxyethyl)acetamide], in experiment [1], the IC50 stood at 0.002 µM, the “Mean IC70” value amounted to 0.006 µM, the “% Selectivity” value amounted to 42% and the “Rating (selectivity)” value was “(+ + +)”. In addition, in experiment [1], the “Selectivity Total” value was 5/12 and the “in vitro antitumor activity” value is given as “showed in vitro antitumor activity”.

With `C/C=C/C(O)C(C)/C=C/C(=NOCC(=O)N1CCCCC1)C(C)C(O)C(C)C1OC(=O)/C(OC)=C/C(C)=C/C(C)C(O)C(CC)C(O)C(C)C/C(C)=C/C=C/C1OC` (stereo in doubt) [Example 13, (3Z,5E,13E,15E)-18-((5Z,6E,10E)-3,9-Dihydroxy-4,8-dimethyl-5-(2-oxo-2-(piperidin-1-yl)ethoxyimino)dodeca-6,10-dien-2-yl)-9-ethyl-8,10-dihydroxy-3,17-dimethoxy-5,7,11,13-tetramethyloxacyclooctadeca-3,5,13,15-tetraen-2-one], in experiment [1], the IC50 was 0.03 µM, the “Mean IC70” value amounted to 0.097 µM, the “% Selectivity” value is reported as 17% and the “Rating (selectivity)” value is “(+ +)”. For the same compound, in experiment [1], the “Selectivity Total” value is reported as 2/12 and the “in vitro antitumor activity” value is “showed in vitro antitumor activity”.

On to `C/C=C/C(O)C(C)/C=C/C(=NOCC(=O)N1CCC(N2CCCCC2)CC1)C(C)C(O)C(C)C1OC(=O)/C(OC)=C/C(C)=C/C(C)C(O)C(CC)C(O)C(C)C/C(C)=C/C=C/C1OC` (stereo in doubt) [Example 14, (3Z,5E,13E,15E)-18-((5Z,6E,10E)-5-(2-(1,4′-Bipiperidin-1′-yl)-2-oxoethoxyimino)-3,9-dihydroxy-4,8-dimethyldodeca-6,10-dien-2-yl)-9-ethyl-8,10-dihydroxy-3,17-dimethoxy-5,7,11,13-tetramethyloxacyclooctadeca-3,5,13,15-tetraen-2-one], for which, in experiment [1], half-maximal inhibition (IC50) was put at 0.358 µM, the “Mean IC70” value stood at 0.762 µM, the “% Selectivity” value was 8% and the “Rating (selectivity)” value is listed as “(+) (+ (4% > selective >= 12%))”. Also, in experiment [1], the “Selectivity Total” value was 1/12 and the “in vitro antitumor activity” value was “showed in vitro antitumor activity”.

Consider `C/C=C/C(O)C(C)/C=C/C(=NOCC(=O)NCc1ccc(F)cc1)C(C)C(O)C(C)C1OC(=O)/C(OC)=C/C(C)=C/C(C)C(O)C(CC)C(O)C(C)C/C(C)=C/C=C/C1OC` (stereo in doubt) [Example 15, 2-((Z)-((6E,10E)-2-((4E,6E,14E,16Z)-11 Ethyl-10,12-dihydroxy-3,17-dimethoxy-7,9,13,15-tetramethyl-18-oxooxacyclooctadeca-4,6,14,16-tetraen-2-yl)-3,9-dihydroxy-4,8-dimethyldodeca-6,10-dien-5-ylidene)aminooxy)-N-(4-fluorobenzyl)acetamide], for which, in experiment [1], the IC50 is 0.001 µM, the “Mean IC70” value is 0.003 µM, the “% Selectivity” value came out at 50% and the “Rating (selectivity)” value is reported as “(+++) (+++ (% selective > 20%))”. Further, in experiment [1], the “Selectivity Total” value is 6/12 and the “in vitro antitumor activity” value is reported as “showed in vitro antitumor activity”.

As for `C/C=C/C(O)C(C)/C=C/C(=N\OC)C(C)C(O)C(C)C1OC(=O)/C(OC)=C/C(C)=C/C(C)C(O)C(CC)C(O)C(C)C/C(C)=C/C=C/C1OC` (stereo not shown) [Example 8, (3Z,5E,13E,15E)-18-((5E,6E,10E)-3,9-Dihydroxy-5-(methoxyimino)-4,8-dimethyldodeca-6,10-dien-2-yl)-9-ethyl-8,10-dihydroxy-3,17-dimethoxy-5,7,11,13-tetramethyloxacycloocta deca-3,5,13,15-tetraen-2-one], the IC70 in the experiment on T 24, in the experiment on CXF 269L, with LXF 526L and in the experiment on MDA 231 was not above 0.3 ng/mL in each case.
